Data: patent US4393225A, “AI-77 Compounds and pharmaceutically acceptable salts thereof” (Asahi Kasei Kogyo Kabushiki Kaisha, priority 1979, dated 1983)
Where two headings read alike, the source gives them in different places.

Test system: ulcer
Assay: Anti-ulcer test (restraint and water immersion ulcer in rats, i.p.)
Type: in vivo, Male Wistar rats
Conditions: Rattus norvegicus, ip, read-out: % Inhibition of Ulcer; for inhibition in vivo at 50 mg/kg: 50 mg/kg i.p.
Outline: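 Compound given intraperitoneally in saline to 24 h-fasted male Wistar rats about 150 g, followed after one hour by 6 h restraint with water immersion at 21 °C. Gastric lesions graded 0, 0.5, 1, 2 or 3 on microscopic inspection and converted to percent ulcer inhibition.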

COc1ccc(C(=O)Oc2cccc3c2C(=O)OC(C(CC(C)C)NC(=O)C(O)C2C=CC(=O)O2)C3)cc1 (stereo not shown) [IVa-3-16]
inhibition in vivo at 50 mg/kg: 33%

COC(C)CC(=O)Oc1cccc2c1C(=O)OC(C(CC(C)C)NC(=O)C(O)C1C=CC(=O)O1)C2 (stereo not shown) [IVa-3-17]
inhibition in vivo at 50 mg/kg: 33%

C/C=C/C(=O)Oc1cccc2c1C(=O)OC(C(CC(C)C)NC(=O)C(O)C1C=CC(=O)O1)C2 (stereo not shown) [IVa-3-18]
inhibition in vivo at 50 mg/kg: 33%

COc1cccc2c1C(=O)OC(C(CC(C)C)NC(=O)C(O)C1C=CC(=O)O1)C2 (stereo not shown) [IVa-4-1]
inhibition in vivo at 50 mg/kg: 44%

CCOc1cccc2c1C(=O)OC(C(CC(C)C)NC(=O)C(O)C1C=CC(=O)O1)C2 (stereo not shown) [IVa-4-2]
inhibition in vivo at 50 mg/kg: 44%

CCCCOc1cccc2c1C(=O)OC(C(CC(C)C)NC(=O)C(O)C1C=CC(=O)O1)C2 (stereo not shown) [IVa-4-3]
inhibition in vivo at 50 mg/kg: 44%

CC(C)CCOc1cccc2c1C(=O)OC(C(CC(C)C)NC(=O)C(O)C1C=CC(=O)O1)C2 (stereo not shown) [IVa-4-4]
inhibition in vivo at 50 mg/kg: 44%

CCCCCCCCCCCCCCCCCCOc1cccc2c1C(=O)OC(C(CC(C)C)NC(=O)C(O)C1C=CC(=O)O1)C2 (stereo not shown) [IVa-4-5]
inhibition in vivo at 50 mg/kg: 33%

CC(C)CC(NC(=O)C(O)C1C=CC(=O)O1)C1Cc2cccc(OCCCl)c2C(=O)O1 (stereo not shown) [IVa-4-6]
inhibition in vivo at 50 mg/kg: 44%

CCCCCCCCC=CCCCCCCCCOc1cccc2c1C(=O)OC(C(CC(C)C)NC(=O)C(O)C1C=CC(=O)O1)C2 (stereo not shown) [IVa-4-7]
inhibition in vivo at 50 mg/kg: 33%

CC(C)CC(NC(=O)C(O)C1C=CC(=O)O1)C1Cc2cccc(OCc3ccccc3)c2C(=O)O1 (stereo not shown) [IVa-4-9]
inhibition in vivo at 50 mg/kg: 33%

CC(C)CC(NC(=O)C(O)C1C=CC(=O)O1)C1Cc2cccc(OCC3CCCCC3)c2C(=O)O1 (stereo not shown) [IVa-4-11]
inhibition in vivo at 50 mg/kg: 33%

CC(C)CC(NC(=O)C(O)C1C=CC(=O)O1)C1Cc2cccc(OCCc3ccccc3)c2C(=O)O1 (stereo not shown) [IVa-4-12]
inhibition in vivo at 50 mg/kg: 44%

CC(C)CC(NC(=O)C(O)C1C=CC(=O)O1)C1Cc2cccc(OCc3ccco3)c2C(=O)O1 (stereo not shown) [IVa-4-13]
inhibition in vivo at 50 mg/kg: 33%

CC(C)CC(NC(=O)C(O)C1C=CC(=O)O1)C1Cc2cccc(OCC3CCCO3)c2C(=O)O1 (stereo not shown) [IVa-4-14]
inhibition in vivo at 50 mg/kg: 33%

CC(C)CC(NC(=O)C(O)C1C=CC(=O)O1)C1Cc2cccc(OCCC3CCCCO3)c2C(=O)O1 (stereo not shown) [IVa-4-15]
inhibition in vivo at 50 mg/kg: 44%

CC(=O)N1CCC(COc2cccc3c2C(=O)OC(C(CC(C)C)NC(=O)C(O)C2C=CC(=O)O2)C3)CC1 (stereo not shown) [IVa-4-16]
inhibition in vivo at 50 mg/kg: 33%

CC(C)CC(NC(=O)C(O)C1C=CC(=O)O1)C1Cc2cccc(OCc3ccc4ccccc4c3)c2C(=O)O1 (stereo not shown) [IVa-4-17]
inhibition in vivo at 50 mg/kg: 33%

CC(C)CC(NC(=O)C(O)C1C=CC(=O)O1)C1Cc2cccc(OCCc3ccc4ccccc4c3)c2C(=O)O1 (stereo not shown) [IVa-4-18]
inhibition in vivo at 50 mg/kg: 33%

CC(C)CC(NC(=O)C(O)C1C=CC(=O)O1)C1Cc2cccc(OCCCBr)c2C(=O)O1 (stereo not shown) [IVa-4-19]
inhibition in vivo at 50 mg/kg: 44%

CCC(=O)COc1cccc2c1C(=O)OC(C(CC(C)C)NC(=O)C(O)C1C=CC(=O)O1)C2 (stereo not shown) [IVa-4-20]
inhibition in vivo at 50 mg/kg: 44%

Cc1ccc(COc2cccc3c2C(=O)OC(C(CC(C)C)NC(=O)C(O)C2C=CC(=O)O2)C3)cc1 (stereo not shown) [IVa-4-21]
inhibition in vivo at 50 mg/kg: 33%

CC(C)CCc1ccc(COc2cccc3c2C(=O)OC(C(CC(C)C)NC(=O)C(O)C2C=CC(=O)O2)C3)cc1 (stereo not shown) [IVa-4-22]
inhibition in vivo at 50 mg/kg: 33%

COc1ccc(COc2cccc3c2C(=O)OC(C(CC(C)C)NC(=O)C(O)C2C=CC(=O)O2)C3)cc1 (stereo not shown) [IVa-4-23]
inhibition in vivo at 50 mg/kg: 33%

CC(C)CCOc1ccc(COc2cccc3c2C(=O)OC(C(CC(C)C)NC(=O)C(O)C2C=CC(=O)O2)C3)cc1 (stereo not shown) [IVa-4-24]
inhibition in vivo at 50 mg/kg: 33%

CC(C)CC(NC(=O)C(O)C(O)C(N)CC(N)=O)C1Cc2cccc(O)c2C(=O)O1 (stereo not shown) [VII-1-1]
inhibition in vivo at 25 mg/kg: 100%

CNC(=O)CC(N)C(O)C(O)C(=O)NC(CC(C)C)C1Cc2cccc(O)c2C(=O)O1 (stereo not shown) [VII-1-2]
inhibition in vivo at 25 mg/kg (25 mg/kg i.p.): 100%

CCNC(=O)CC(N)C(O)C(O)C(=O)NC(CC(C)C)C1Cc2cccc(O)c2C(=O)O1 (stereo not shown) [VII-1-3]
inhibition in vivo at 25 mg/kg (25 mg/kg i.p.): 100%
